Reference: ChEMBL document CHEMBL3137667, “[Drug-induced liver injury; fourteenth updated edition of the bibliographic database of liver injuries and related drugs]” (Gastroenterol Clin Biol, 2004)

What was measured:
[1] = Highest frequency of moderate liver toxicity observed during clinical trials, expressed as a percentage. [column '% BIOL' in source]; conditions: human
[2] = Highest frequency of acute liver toxicity observed during clinical trials, expressed as a percentage. [column '% AIGUE' in source]; conditions: human
[3] = Comments (NB not yet translated). [column 'COMMENTAIRES' in source]; conditions: human
[4] = human, serum
[5] = human, serum; remark: listed apart in the source
[6] = human
[7] = human; remark: listed apart in the source
[8] = human; remark: listed apart in the source
[9] = human, serum, 4383 h
[10] = human; remark: listed apart in the source
[11] = human; remark: listed apart in the source
[12] = human; remark: listed apart in the source
[13] = human; remark: listed apart in the source
[14] = human; remark: listed apart in the source
[15] = human; remark: listed apart in the source
[16] = Times to onset, minimal and maximal, observed in the indexed observations. [column 'DELAI' in source]; conditions: human
[17] = Proposed mechanism(s) of liver damage. [column 'MEC' in source]; conditions: human
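For Hepatotoxicity (association with vascular disease) in this document: count of indexed literature references reporting vascular liver injury in humans, e.g. peliosis hepatitis, hepatic veno-occlusive disease or Budd-Chiari syndrome.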
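For Hepatotoxicity (benign tumour) in this document: value is a count of indexed literature references citing a benign tumour confirmed by histopathology.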
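For Hepatotoxicity (choleostasis) in this document: human cholestatic liver injury, shown by histopathology or by peak ALT or AST elevation over alkaline phosphatase ratio below 2, value counts indexed literature reports.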
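For Hepatotoxicity (chronic liver disease) in this document: chronic liver injury confirmed by histopathology or persistently raised serum aminotransferase activity beyond 6 months, value given as the count of indexed literature references.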
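For Hepatotoxicity (cirrhosis) in this document: value is a count of indexed literature references reporting cirrhosis confirmed by histopathology.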
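For Hepatotoxicity (cytolytic) in this document: human cytolytic liver injury, shown by histopathology or by a ratio above 5 of peak ALT or AST elevation to alkaline phosphatase elevation, value counts indexed references.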
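For Hepatotoxicity (granulomatous hepatitis) in this document: value is a count of indexed literature references reporting granulomatous liver disease confirmed by histopathology.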
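For Hepatotoxicity (malignant tumour) in this document: malignant tumour confirmed by histopathology, value gives the count of indexed literature references reporting it.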
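For Hepatotoxicity (severe hepatitis) in this document: human clinical data: severe hepatitis, meaning potentially life-threatening liver failure or clinically observed cases, the value counts how many indexed literature references report it.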
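For Hepatotoxicity (steatosis) in this document: steatosis confirmed by histopathology, value is the count of indexed references.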

Compound | Hepatotoxicity (moderate) [1] [%] | Hepatotoxicity (acute) [2] [%] | Hepatotoxicity (comment) [3] | Hepatotoxicity (moderate) [4] | Hepatotoxicity (acute) [5] | Hepatotoxicity (cytolytic) [6] | Hepatotoxicity (choleostasis) [7] | Hepatotoxicity (severe hepatitis) [8] | Hepatotoxicity (chronic liver disease) [9] | Hepatotoxicity (cirrhosis) [10] | Hepatotoxicity (granulomatous hepatitis) [11] | Hepatotoxicity (association with vascular disease) [12] | Hepatotoxicity (steatosis) [13] | Hepatotoxicity (malignant tumour) [14] | Hepatotoxicity (benign tumour) [15] | Hepatotoxicity (time to onset) [16] | Hepatotoxicity (mechanism) [17] | Hepatotoxicity (moderate) ([1]; Liver) [%] | Hepatotoxicity (acute) ([2]; Liver) [%] | Hepatotoxicity (severe hepatitis) ([8]; Liver) | other results
CC1=C(C/C=C(\C)CCC[C@H](C)CCC[C@H](C)CCCC(C)C)C(=O)c2ccccc2C1=O [PHYTONADIONE] | 0 | 0 | ICTERE_NEONATAL | 0 | 5 | 0 | 0 | 0 | 0 | 0 | 0 | 0 | 0 | 0 | 0 |  |  |  |  |  | 
CC(C)[C@@H]1NC(=O)[C@H](CCCCN)NC(=O)[C@@H](Cc2c[nH]c3ccccc23)NC(=O)[C@H](Cc2ccc(O)cc2)NC(=O)[C@@H](NC(=O)[C@H](N)Cc2ccc3ccccc3c2)CSSC[C@@H](C(=O)N[C@H](C(N)=O)[C@@H](C)O)NC1=O [LANREOTIDE] | 0 | 0 | BOUE_BILIAIRE LITHIASE_VESICULAIRE ENCEPHALOPATHIE | 0 | 0 | 0 | 0 | 0 | 0 | 0 | 0 | 0 | 0 | 0 | 0 |  |  |  |  |  | 
c1ccc(C2(N3CCCCC3)CCCCC2)cc1 [PHENCYCLIDINE] | 49.9 | 0 |  | 1 | 2 | 2 | 0 | 2 | 0 | 0 | 0 | 0 | 0 | 0 | 0 | 6 hours - 3 days | Dose-dependant |  |  |  | 
O=C1CC[C@@]2(O)[C@H]3Cc4ccc(O)c5c4[C@@]2(CCN3CC2CC2)[C@H]1O5 [NALTREXONE] |  |  |  | 9 | 3 | 3 | 0 |  | 0 | 0 | 0 | 0 | 0 | 0 | 0 | 1 month - 2 months | Dose-dependant | 20 | 0 | 0 | 
O=C(O)c1ccccc1O.O=C(O)c1ccccc1O.O=C(O)c1ccccc1O |  |  |  | 0 | 1 |  |  |  | 0 | 0 |  | 0 | 0 | 0 | 0 | 3 days |  | 0 | 0 | 1 | Hepatotoxicity (mechanism) ([17]; Liver): Allergic; Hepatotoxicity (cytolytic) ([6]; Liver): 1; Hepatotoxicity (choleostasis) ([7]; Liver): 0; Hepatotoxicity (granulomatous hepatitis) ([11]; Liver): 0
